Measurements published in patent US20260306460A1, “COMPOSITION FOR REMOVING AND INHIBITING SENESCENT CELLS, AND USES THEREOF” (LIFECEUTIX CO., LTD., priority 2023, published 2026).
Entries after “also recorded” stand apart in the source; their conditions may differ.

Assays:
senescent foreskin cells = assay: Survival of senescent human cells treated with supernatant (secreted fluid) from death-induced cells, Example 13; assay type: cell-based
[1] = system: carbon tetrachloride-induced liver fibrosis mice; assay: Carbon tetrachloride-induced liver fibrosis mice, Example 31, Table 57; assay type: in vivo, mouse; details: CCl4-induced liver fibrosis mice, untreated = 100%
Protocol: (§1) The control group was administered only the solution in the same volume. After the end of drug administration, the method described in each example below was performed. Liver, kidney, skin, knee joint, heart, and femur tissues were collected from mice in which natural aging was induced in the same manner as in Examples 7-2 and 7-6 of WO2023-085787 A1. Lung tissues were collected from mice in which pulmonary fibrosis was induced using the same method as in Example 24-1. Liver tissues were collected from mice in which hepatic fibrosis was induced using the same method as in Example 26, and total RNA was extracted. qRT-PCR was performed and analyzed using the synthesized cDNA. […] The mRNA amounts of p16, MMP3, and IL6 after natural aging was induced were calculated as 100% and compared with the mRNA amounts of p16, MMP3, and IL6 after treatment with the test compound. In addition, an open field test for the analysis of aging-related frailty, agtr1a mRNA analysis for kidney damage and disease evaluation, col1a1 and SDF1 mRNA analysis for skin aging evaluation such as wrinkles/loss of elasticity/hyperpigmentation, col2a1 mRNA analysis for evaluating joint aging such as osteoarthritis, sur2a mRNA analysis for evaluating cardiac aging such as decreased cardiac load resistance, ctsk mRNA analysis for evaluating bone diseases due to aging such as osteoporosis, muscle tissue weight for analyzing sarcopenia, fat tissue weight for analyzing lipoatrophy, and cataract incidence analysis were performed in mice. For cataract incidence analysis, the drug was administered twice a week under the conditions specified above, and biweekly examinations were conducted until death.

[2] = system: bleomycin-induced pulmonary fibrosis mice; assay: Bleomycin-induced pulmonary fibrosis mice, Example 31, Table 56; assay type: in vivo, mouse; details: untreated = 100%
Protocol: as §1
The table below quantitatively presents the evaluation results for each item in mice with bleomycin-induced pulmonary fibrosis, untreated and treated with the test compound.

naturally aged mice = assay: Anti-aging evaluation in naturally aged mice, Example 31, Table 55; assay type: in vivo, mouse;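 note: Vehicle-dosed control mice received solution alone at matching volume, values compare test-compound-treated aged mice against that control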
[3] = system: naturally aged C57BL6J mice; assay type: in vivo, mouse; details: mouse, in vivo
senescent A549 cells = assay: Viability of senescent A549 cells (CellTiter-Glo), Example 18, Table 15; details: Homo sapiens, A549, read-out: Survival (%)
Protocol: Senescence-induced cancer cells treated with doxorubicin were treated with the test compound at designated concentrations, and cell viability was measured using the CellTiter-Glo Luminescent Cell Viability Assay (Promega).

senescent cells = assay: Viability of senescent cells (CellTiter-Glo), Example 17, Table 13; details: Homo sapiens, read-out: Survival (%)
Protocol: Cells induced to undergo senescence by doxorubicin treatment were treated with test compound at designated concentrations and measured using the CellTiter-Glo Luminescent Cell Viability Assay (Promega).

Structure (SMILES): O=c1c2ccccc2[se]n1CCn1[se]c2ccccc2c1=O [LX-112, 1,2-[bis(1,2-benzisoselenazolone-3 (2H)-ketone)]ethane]
- death of senescent cells by medium supernatant (senescent foreskin cells; supernatants from proliferating and senescent death-induced cells): selectively induced the death of senescent cells; also recorded: same results

Structure (SMILES): COc1cc(OC)cc(N(CCNC(C)C)c2ccc3ncc(-c4cnn(C)c4)nc3c2)c1 [LX-1903, Erdafitinib]
- Survival (senescent foreskin cells; Table 8, supernatant from dying senescent cells treated at 30, 90 or 270 μM (as Example 11), senescent treated cells): 62.8
- Liver p16 mRNA ([1]; liver): 67 (±9.2) %
- Col1a1 mRNA [1]: 62 (±6.9) %
- Lung p16 mRNA ([2]; lung): 73 (±6.6) %
- Col1a1 mRNA [2]: 70 (±9.3) %
- Femur Ctsk mRNA (naturally aged mice; femur, untreated = 100%): 77%
- Heart Sur2a mRNA (naturally aged mice; heart, untreated = 1.0): 1.4 fold
- Joint Col2a1 mRNA (naturally aged mice; joint, untreated = 1.0): 1.7 fold
- Liver IL6 mRNA (naturally aged mice; liver, untreated = 100%): 58%
- Liver MMP3 mRNA (naturally aged mice; liver, untreated = 100%): 75%
- Liver p16 mRNA (naturally aged mice; liver, untreated = 100%): 69%
- Open Field Test Time in Center (naturally aged mice; open field test, untreated = 100%): 161%
- Skin Col1a1 mRNA (naturally aged mice; skin, untreated = 1.0): 1.2 Fold
- Skin SDF1 mRNA (naturally aged mice; skin, untreated = 1.0): 1.4 fold
- Muscle Mass (naturally aged mice; untreated 0.64 g): 0.69 g
- Fat Mass (naturally aged mice; untreated 0.82 g): 0.97 g
- Cataract incidence (naturally aged mice; untreated 83%): 79%

Structure (SMILES): CONC(=O)[C@]12CCC(C)(C)C[C@H]1[C@H]1C(=O)C=C3[C@@]4(C)C=C(C#N)C(=O)C(C)(C)[C@@H]4CC[C@@]3(C)[C@]1(C)CC2 [LX-2310]
- wound/damage healing improvement [3]: damage treatment and recovery

Structure (SMILES): C=C(C)[C@@H]1CC[C@]2(C(=O)NCC)CC[C@]3(C)[C@H](CCC4[C@@]5(C)C=C(C#N)C(=O)C(C)(C)[C@@H]5CC[C@]43C)[C@@H]12 (some centres unmarked) [LX-2311]
- wound/damage healing improvement [3]: damage treatment and recovery

Structure (SMILES): C[C@@H]1C(=O)C(C#N)=C[C@]2(C)c3nn(C)c(-c4ccccc4)c3CC[C@@H]12 [LX-2312]
- wound/damage healing improvement [3]: damage treatment and recovery

Structure (SMILES): COc1nc(-c2cccnc2)nc2c1CC[C@H]1[C@H](C)C(=O)C(C#N)=C[C@]21C [LX-2315]
- wound/damage healing improvement [3]: damage treatment and recovery

Structure (SMILES): COC(=O)[C@]12CCC(C)(C)C[C@H]1[C@H]1C(=O)C=C3[C@@]4(C)C=C(C#N)C(=O)[C@@H](C)[C@@H]4CC[C@@]3(C)[C@]1(C)CC2 [LX-2316]
- wound/damage healing improvement [3]: damage treatment and recovery

Structure (SMILES): C[C@@H]1C(=O)C(C#N)=C[C@]2(C)C3=CC(=O)[C@@H]4[C@@H]5CC(C)(C)CC[C@]5(CO)CC[C@@]4(C)[C@]3(C)CC[C@@H]12 [LX-2317]
- wound/damage healing improvement [3]: damage treatment and recovery

Structure (SMILES): CC1(C)CC[C@]2(CO)CC[C@]3(C)[C@H](C(=O)C=C4[C@@]5(C)[C@H]6O[C@@]6(C#N)C(=O)C(C)(C)[C@@H]5CC[C@]43C)[C@@H]2C1 [LX-2318]
- wound/damage healing improvement [3]: damage treatment and recovery

Structure (SMILES): C[C@@H]1C(=O)[C@]2(C#N)O[C@@H]2[C@]2(C)C3=CC(=O)[C@@H]4[C@@H]5CC(C)(C)CC[C@]5(NC(=O)C(C)(F)F)CC[C@@]4(C)[C@]3(C)CC[C@@H]12 [LX-2319]
- wound/damage healing improvement [3]: damage treatment and recovery

Structure (SMILES): Cc1noc([C@]23CCC(C)(C)C[C@H]2[C@H]2C(=O)C=C4[C@@]5(C)C=C(C#N)C(=O)C(C)(C)[C@@H]5CC[C@@]4(C)[C@]2(C)CC3)n1 [LX-2401]
- wound/damage healing improvement [3]: damage treatment and recovery

Structure (SMILES): CCNC(=O)CC[C@]12CCC(C)(C)C[C@H]1[C@H]1C(=O)C=C3[C@@]4(C)C=C(C#N)C(=O)C(C)(C)[C@@H]4CC[C@@]3(C)[C@]1(C)CC2 [LX-2402]
- wound/damage healing improvement [3]: damage treatment and recovery

Structure (SMILES): CNC(=O)CC[C@]12CCC(C)(C)C[C@H]1[C@H]1C(=O)C=C3[C@@]4(C)C=C(C#N)C(=O)C(C)(C)[C@@H]4CC[C@@]3(C)[C@]1(C)CC2 [LX-2403]
- wound/damage healing improvement [3]: damage treatment and recovery

Structure (SMILES): CC1(C)CC[C@]2(CO)CC[C@@]3(C)[C@]4(C)CC[C@H]5C(C)(C)C(=O)C(C#N)=C[C@]5(C)C4=CC(=O)[C@]3(O)C2C1 (some centres unmarked) [LX-2405]
- wound/damage healing improvement [3]: damage treatment and recovery

Structure (SMILES): CC1(C)CC[C@]2(C(N)=O)CC[C@@]3(C)[C@]4(C)CC[C@H]5C(C)(C)C(=O)C(C#N)=C[C@]5(C)C4=CC(=O)[C@]3(O)[C@@H]2C1 [LX-2406]
- wound/damage healing improvement [3]: damage treatment and recovery

Structure (SMILES): C[C@@H]1C(=O)C(C#N)=C[C@]2(c3ccccc3)c3c(c(-c4cccnc4)nn3C)CC[C@@H]12 [LX-2407, (5aS,6S,9aR)-1,6-dimethyl-7-oxo-9a-phenyl-3-(pyridin-3-yl)-4,5,5a,6,7,9a-hexahydro-1H-benzo[g]indazole-8-carbonitrile]
- wound/damage healing improvement [3]: damage treatment and recovery

Structure (SMILES): C[C@@H]1C(=O)C(C#N)=C[C@]2(c3ccccc3)c3c(c(-c4cncnc4)nn3C)CC[C@@H]12 [LX-2408]
- wound/damage healing improvement [3]: damage treatment and recovery

Structure (SMILES): C[C@@H]1C(=O)C(C#N)=C[C@]2(C)c3nc(CCO)n(-c4ccccc4)c3CC[C@@H]12 [LX-2409]
- wound/damage healing improvement [3]: damage treatment and recovery

Structure (SMILES): CC(O)[C@]1(C)C(=O)C(C#N)=C[C@]2(C)C3=CC(=O)[C@]45OC(=O)[C@@]6(CCC(C)(C)C[C@H]64)CC[C@@]5(C)[C@]3(C)CC[C@@H]12 (some centres unmarked) [LX-2501]
- wound/damage healing improvement [3]: damage treatment and recovery

Structure (SMILES): CCC[C@H]1C(=O)C(C#N)=C[C@@]2(C)c3nc(-c4cccc5ccccc45)nc(-c4ccccc4F)c3CC[C@H]12 [LX-2502]
- wound/damage healing improvement [3]: damage treatment and recovery

Structure (SMILES): CCC[C@H]1C(=O)C(C#N)=C[C@@]2(C)c3nc(-c4cccc5ncccc45)nc(-c4ccccc4F)c3CC[C@H]12 [LX-2503]
- wound/damage healing improvement [3]: damage treatment and recovery

Structure (SMILES): C[C@H]1C(=O)C(C#N)=C[C@@]2(C)c3c(c(-c4ccccc4)nn3-c3ccc(-c4cccc(CO)c4)cc3)CC[C@H]12 [LX-2505]
- wound/damage healing improvement [3]: damage treatment and recovery

Structure (SMILES): Cc1cc(-c2ccc(-n3nc(-c4ccccc4F)c4c3[C@]3(C)C=C(C#N)C(=O)[C@H](C)[C@H]3CC4)cc2)cnn1 [LX-2506]
- wound/damage healing improvement [3]: damage treatment and recovery

Structure (SMILES): C[C@@H]1C(=O)C(C#N)=C[C@]2(C)C3=CC(=O)[C@@H]4[C@@H]5CC(C)(C)CC[C@]5(c5nnc(CF)o5)CC[C@@]4(C)[C@]3(C)CC[C@@H]12 [LX-2507]
- wound/damage healing improvement [3]: damage treatment and recovery

Structure (SMILES): CC1(C)CC[C@]2(c3nc(CO)no3)CC[C@]3(C)[C@H](C(=O)C=C4[C@@]5(C)C=C(C#N)C(=O)C(C)(C)[C@@H]5CC[C@]43C)[C@@H]2C1 [LX-2508]
- wound/damage healing improvement [3]: damage treatment and recovery

Structure (SMILES): C=CC(=O)NC[C@]12CCC(C)(C)C[C@H]1[C@H]1C(=O)C=C3[C@@]4(C)C=C(C#N)C(=O)C(C)(C)[C@@H]4CC[C@@]3(C)[C@]1(C)CC2 [LX-2509]
- wound/damage healing improvement [3]: damage treatment and recovery

Structure (SMILES): CCC(=O)NC[C@]12CCC(C)(C)C[C@H]1[C@H]1C(=O)C=C3[C@@]4(C)C=C(C#N)C(=O)C(C)(C)[C@@H]4CC[C@@]3(C)[C@]1(C)CC2 [LX-2510]
- wound/damage healing improvement [3]: damage treatment and recovery

Structure (SMILES): C[C@@H]1[C@H]2[C@H]3C(=O)C=C4[C@@]5(C)C=C(C#N)C(=O)C(C)(C)[C@@H]5CC[C@@]4(C)[C@]3(C)CC[C@@]2(c2nc(CCO)no2)CC[C@H]1C [LX-2511]
- wound/damage healing improvement [3]: damage treatment and recovery

Structure (SMILES): C[C@@H]1[C@H]2[C@H]3C(=O)C=C4[C@@]5(C)C=C(C#N)C(=O)C(C)(C)[C@@H]5CC[C@@]4(C)[C@]3(C)CC[C@@]2(CO)CC[C@H]1C [LX-2512]
- wound/damage healing improvement [3]: damage treatment and recovery

Structure (SMILES): COC(=O)[C@@]1(C)CC[C@]2(C)CC[C@]3(C)[C@H](C(=O)C=C4[C@@]5(C)C=C(C#N)C(=O)C(C)(C)C5CC[C@]43C)[C@@H]2C1 (some centres unmarked) [LX-2513, Soloxolone methyl]
- wound/damage healing improvement [3]: damage treatment and recovery

Structure (SMILES): CC1(C)C(=O)C(C#N)=C[C@]2(C)C3=CC(=O)[C@@H]4[C@@H]5C[C@@](C)(C(=O)NCCc6c[nH]c7ccccc67)CC[C@]5(C)CC[C@@]4(C)[C@]3(C)CCC12 (some centres unmarked) [LX-2517, Soloxolone tryptamide]
- wound/damage healing improvement [3]: damage treatment and recovery

Structure (SMILES): C=C(C)[C@@H]1CC[C@]2(C)CC[C@]3(C)[C@H](CC[C@@H]4[C@@]5(C)CC[C@H](O)C(C)(C)[C@@H]5CC[C@]43C)[C@@H]12 [LX-5433, Lupeol]
- viability at 1.1 µM (senescent A549 cells): 97.8%
- viability at 10 µM (senescent A549 cells): 76.5%
- viability at 30 µM (senescent A549 cells): 64.7%
- viability at 90 µM (senescent A549 cells): 19.3%
- viability at 1.1 µM (senescent cells): 108%
- viability at 10 µM (senescent cells): 71.1%
- viability at 30 µM (senescent cells): 51.8%
- viability at 90 µM (senescent cells): 2.4%
- wound/damage healing improvement [3]: damage treatment and recovery
